Results taken from publication PMC8646019, “Azvudine is a thymus-homing anti-SARS-CoV-2 drug effective in treating COVID-19 patients” (Signal Transduction and Targeted Therapy, 2021).
Where “and” joins values, the source holds several entries; their conditions need not be identical. Identical values can stand only once. Entries after “also recorded” stand apart in the source; their conditions may differ.

Test system: SARS-CoV-2
Assay: Clinical trial of FNC on compassionate use in COVID-19 patients
[1] = drug combination no: FNC only, N = 15
[2] = drug combination no: FNC only, N = 15, mean ± SD
[3] = drug combination yes: FNC plus TCM or/and other antivirals, N = 16, mean ± SD
[4] = individual COVID-19 patient (one per table line)
[5] = moderate COVID-19, n = 26, mean ± SD
[6] = severe COVID-19, n = 5, mean ± SD

[N-]=[N+]=N[C@]1(CO)O[C@@H](n2ccc(N)nc2=O)[C@@H](F)[C@@H]1O [FNC, 2′-deoxy-2′-β-fluoro-4′-azidocytidine]
Recovery rate (all 31 COVID-19 patients): 100% (31/31) | Time from FNC treatment to SARS-CoV-2 negative conversion, median (all 31 COVID-19 patients): 3.0 days | Time from FNC treatment to SARS-CoV-2 negative conversion, range (all 31 COVID-19 patients): 1 to 9 days | Time from FNC treatment to discharge from the hospital, average (all 31 COVID-19 patients): 9.00 ± 4.93 days and 9.00 days | Time from FNC treatment to discharge from the hospital, median (all 31 COVID-19 patients): 9.0 days | Time from FNC treatment to discharge from the hospital, range (all 31 COVID-19 patients): 2 to 25 days | deaths in the trial (all 31 COVID-19 patients): No patients died | hospital discharge rate (all 31 COVID-19 patients): 100% | viral ribonucleic acid negative conversion, share of patients (all 31 COVID-19 patients): 100% | Time from FNC treatment to SARS-CoV-2 negative conversion, average (all 31 COVID-19 patients, oral FNC 5 mg qd): 3.29 ± 2.22 days and 3.29 days | Recovery rate [1]: 100% (16/16) | Side effect [1]: 13.3% (2/15) | Time from FNC treatment to SARS-CoV-2 negative conversion [2]: 2.13 ± 1.30 days | Time from FNC treatment to discharge from the hospital [2]: 8.67 ± 6.24 days | Recovery rate (drug combination yes, N = 16): 100% (16/16) | Side effect (drug combination yes, N = 16): 18.8% (3/16) | Time from FNC treatment to SARS-CoV-2 negative conversion [3]: 4.38 ± 2.39 days | Time from FNC treatment to discharge from the hospital [3]: 9.31 ± 3.46 days | Side effect [4]: Dizziness (fist day); also recorded: Low counts of Platelet and Fibrinogen (first day); also recorded: Dizziness, Nausea, Vomit (first day); also recorded: Dizziness, Insomnia, Vomit (first day) | Time from FNC treatment to discharge from the hospital [4]: 6 days and 7 days and 5 days | Time from FNC treatment to SARS-CoV-2 negative conversion (individual COVID-19 patient (one per table line; dosage and combination treatment as in the line)): 6 days | Recovery rate (moderate COVID-19, n = 26): 100% (26/26) | Time from FNC treatment to SARS-CoV-2 negative conversion [5]: 3.35 ± 2.13 days | Time from FNC treatment to discharge from the hospital [5]: 9.65 ± 4.91 days | Recovery rate (self-controlled comparison, 11 patients): 100% (11/11) | Time from drug treatment to SARS-CoV-2 negative conversion (self-controlled comparison, 11 patients first treated with known antivirals, then FNC alone, mean ± SD): 1.73 ± 0.79 days | Time from FNC treatment to discharge from the hospital (self-controlled comparison, 11 patients, mean ± SD): 9.09 ± 7.27 days | Recovery rate (severe COVID-19, n = 5): 100% (5/5) | Side effect (severe COVID-19, n = 5): 40% (2/5) | Time from FNC treatment to SARS-CoV-2 negative conversion [6]: 3.00 ± 2.92 days | Time from FNC treatment to discharge from the hospital [6]: 5.60 ± 3.78 days
